SMILES strings stand for the structures. Active and inactive are the calls of the source. The rule behind the calls is not given here.

The subject of assay [1] is BV-2. In words: Neuroprotective effect in […] cells assessed as LPS-induced nitric oxide production at 10 to 100 uM incubated for 1 hr prior to LPS challenge measured after 24 hrs by Griess assay. The assay is classed as functional, cell-based. The following applies: Mus musculus.
Assay [2] deals with BV-2. Nature of the assay: Inhibition of LPS-induced iNOS protein expression in […] cells at 0.1 uM by Western blotting analysis. Format: functional, cell-based.
Assay [3] concerns BV-2. Nature of the assay: Inhibition of LPS-induced COX-2 protein expression in […] cells at 0.1 uM by Western blotting analysis. The assay is classed as functional, cell-based.
The subject of assay [4] is MAP kinase p38 (Mus musculus). In words: Inhibition of LPS-induced p38 phosphorylation in mouse BV2 cells at 0.1 uM by Western blotting analysis. The note with it: BV-2.
Assay [5] concerns BV-2. Nature of the assay: Inhibition of LPS-induced ERK phosphorylation in […] cells at 0.1 uM by Western blotting analysis. The assay is classed as cell-based.
Assay [6] concerns the target T1, NF-kappa-B inhibitor alpha (Homo sapiens) (UniProt P25963).
T1 sequence (whole entry): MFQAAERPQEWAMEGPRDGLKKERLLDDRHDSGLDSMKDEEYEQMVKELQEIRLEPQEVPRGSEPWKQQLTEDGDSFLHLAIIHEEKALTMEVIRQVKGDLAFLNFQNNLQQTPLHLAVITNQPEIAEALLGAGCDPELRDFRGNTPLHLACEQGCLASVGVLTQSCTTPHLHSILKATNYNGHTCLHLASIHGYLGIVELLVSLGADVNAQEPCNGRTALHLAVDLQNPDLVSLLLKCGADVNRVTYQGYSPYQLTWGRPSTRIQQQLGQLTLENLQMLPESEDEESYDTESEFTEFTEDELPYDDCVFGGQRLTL
In words: Inhibition of LPS-induced IkB-alpha degradation in […] cells at 0.1 uM by Western blotting analysis. Format: cell-based. The note with it: BV-2.

Assay [7] relates to c-Jun N-terminal kinase, JNK (Mus musculus). Nature of the assay: Inhibition of LPS-induced JNK phosphorylation in mouse BV2 cells at 0.1 uM by Western blotting analysis. The note with it: BV-2.

As to `COc1cc([C@H]2OC[C@@]3(O[C@@H]4O[C@H](CO)[C@@H](O)[C@H](O)[C@H]4O)C2CO[C@@H]3c2ccc(O)c(OC)c2)ccc1O` (some centres not stated), in assay [1], the result was Active.
With `COc1cc([C@H]2Oc3c(O)cc(CCCO)cc3[C@@H]2CO)ccc1O`, the outcome in assay [1] was Active. Moreover, the inhibition result in assay [2] and in assay [3] was “Active” throughout.
As to `COc1cc([C@H]2O[C@H](O)C3C2CO[C@@H]3c2ccc(O)c(OC)c2)ccc1O` (some centres not stated), the inhibition entry in assay [4], in assay [5], in assay [2], in assay [7] and in assay [3] was “Active” throughout. Moreover, in assay [1], the outcome was Active. The inhibition result in assay [6] is “inactive”.
`COc1cc([C@H]2Oc3c(OC)cc(CCCO)cc3[C@@H]2CO[C@@H]2O[C@H](CO)[C@@H](O)[C@H](O)[C@H]2O)ccc1O`: the result in assay [1] was Active.

The values above are taken from ChEMBL document CHEMBL3351881, “Chemical constituents isolated from Disporum viridescens leaves and their inhibitory effect on nitric oxide production in BV2 microglial cells” (Bioorg Med Chem Lett, 2014).
